Broadly, the inhibition is how much of the control response was suppressed. Low readings indicate a weak effect, high ones a strong effect.

This assay has as its system human hepatoma Huh-7 cell line harboring a HCV replicon. Description: HCV replicon assay (inhibition of viral replication, luciferase readout). It counts as cell-based. The conditions noted are these: Hepatitis C virus, 72 h, Huh-7 HCV replicon cells, 3 days incubation. In outline:
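Read-outs: luciferase luminescence for replication inhibition, corrected by ITMN-191 (100% inhibition) wells, and calcein AM fluorescence for cytotoxicity. Cells were treated for 3 days at 37 °C with ten 3-fold compound dilutions in 0.44% final DMSO. Percent inhibition relative to DMSO was fitted with a Hill equation to give EC50 and CC50.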
For orientation: Replicon systems follow genome replication, usually without infectious particles.
As for `CC(C)(C)C#Cc1cc(N(C(=O)[C@H]2CC[C@H](C)CC2)[C@H]2CC[C@H](OC3CCN(C(=O)OC(C)(C)C)CC3)CC2)c(C(=O)O)s1` [Compound 222, 3-(N-(4-(1-(tert-butoxycarbonyl)piperidin-4-yloxy)cyclohexyl)-4-methylcyclohexanecarboxamido)-5-(3,3-dimethylbut-1-ynyl)thiophene-2-carboxylic acid], 2 µM produced 97.7% inhibition. In turn, `CC1=CC[C@H](C(=O)N(c2cc(C#CC(C)(C)C)sc2C(=O)O)[C@H]2CC[C@H](OC3CCOC3)CC2)CC1` (some centres unmarked) [Compound 335] displayed an inhibition at 2 µM of 99.9%. The result for `CC(C)(C)C#Cc1cc(N(C(=O)[C@H]2CC[C@H](C)CC2)[C@H]2CC[C@H](Oc3nccc(=O)[nH]3)CC2)c(C(=O)O)s1` [Compound 326, 5-(3,3-Dimethyl-but-1-ynyl)-3-{(4-methyl-cyclohexanecarbonyl)-[4-(6-oxo-1,6-dihydro-pyrimidin-2-yloxy)-cyclohexyl]-amino}-thiophene-2-carboxylic acid] reads 99.9%.

As to `Cc1cccc(O[C@H]2CC[C@H](N(c3cc(C#CC(C)(C)C)sc3C(=O)O)C(=O)[C@H]3CC[C@H](C)CC3)CC2)n1` [Compound 8, 5-(3,3-Dimethyl-but-1-ynyl)-3-{(trans-4-methyl-cyclohexanecarbonyl)-[trans-4-(6-methyl-pyridin-2-yloxy)-cyclohexyl]-amino}-thiophene-2-carboxylic acid], testing at 2 µM gave an inhibition of 96.7%. `CC(C)(C)C#Cc1cc(N(C(=O)[C@H]2CC[C@H](C)CC2)[C@H]2CC[C@H](Sc3nncs3)CC2)c(C(=O)O)s1` [Compound 86, 3-(N-(4-(1,3,4-Thiadiazol-2-ylthio)cyclohexyl)-4-methylcyclohexanecarboxamido)-5-(3,3-dimethylbut-1-ynyl)thiophene-2-carboxylic acid] came in with an inhibition at 2 µM of 100%. The result for `CC1CCC(C(=O)N(c2cc(C#CC(C)(C)C)sc2C(=O)O)[C@H]2CC[C@H](Oc3cnccc3CN3CCCC3)CC2)CC1` (some centres unmarked) [Compound 196, 3-[[-4-(4-pyrrolidin-1-ylmethyl-pyridin-3-yloxy)-cyclohexyl]-(4-methyl-cyclohexanecarbonyl)-amino]-5-(3,3-dimethyl-but-1-ynyl)-thiophene-2-carboxylic acid] reads 100%; that for `CC(C)(C)C#Cc1cc(N(C(=O)[C@H]2CC[C@H](C)CC2)[C@H]2CC[C@H](Oc3ccc(C(F)(F)F)cn3)CC2)c(C(=O)O)s1` [Compound 10, 5-(3,3-Dimethyl-but-1-ynyl)-3-{(trans-4-methyl-cyclohexanecarbonyl)-[trans-4-(5-trifluoromethyl-pyridin-2-yloxy)-cyclohexyl]-amino}-thiophene-2-carboxylic acid], 56.2%. Compound `CC(C)(C)C#Cc1cc(N(C(=O)[C@H]2CC[C@H](C)CC2)[C@H]2CC[C@H](Oc3ccccn3)CC2)c(C(=O)O)s1` [Compound 1, 5-(3,3-Dimethyl-but-1-ynyl)-3-{(trans-4-methyl-cyclohexanecarbonyl)-[trans-4-(pyridin-2-yloxy)-cyclohexyl]-amino}-thiophene-2-carboxylic acid] gave an inhibition at 2 µM of 99.8%. The result for `C[C@@H](CCOc1ncccn1)N(c1cc(C#CC(C)(C)C)sc1C(=O)O)C(=O)[C@H]1CC[C@H](C)CC1` [Compound 59] reads 99.9%; that for `CN(C)Cc1ccnc(O[C@H]2CC[C@@H](N(c3cc(C#CC(C)(C)C)sc3C(=O)O)C(=O)[C@H]3CC[C@H](C)CC3)CC2)c1` [Compound 175, Sodium 3-(N-(4-(4-((dimethylamino)methyl)pyridin-2-yloxy)cyclohexyl)-4-methylcyclohexanecarboxamido)-5-(3,3-dimethylbut-1-ynyl)thiophene-2-carboxylate], 100%.

The compound `CC(C)(C)C#Cc1cc(N(C(=O)[C@H]2CC[C@H](C)CC2)[C@H]2CC[C@H](O[C@@H]3CCNC3)CC2)c(C(=O)O)s1` [Compound 231, 5-(3,3-dimethylbut-1-ynyl)-3-(4-methyl-N-(4-((R)-pyrrolidin-3-yloxy)cyclohexyl)cyclohexanecarboxamido)thiophene-2-carboxylic acid] yielded an inhibition at 2 µM of 99.9%. With `Cc1nnc(S[C@H]2CC[C@@H](N(c3cc(C#CC(C)(C)C)sc3C(=O)O)C(=O)[C@H]3CC[C@H](C)CC3)CC2)s1` [Compound 103, 5-(3,3-Dimethylbut-1-ynyl)-3-(4-methyl-N-(4-(5-methyl-1,3,4-thiadiazol-2-ylthio)cyclohexyl)cyclohexanecarboxamido)thiophene-2-carboxylic acid], testing at 2 µM gave an inhibition of 98.3%. The result for `CC(C)(C)C#Cc1cc(N(C(=O)[C@H]2CC[C@H](C)CC2)[C@H]2CC[C@H](Oc3cncc(N4CCCC4)n3)CC2)c(C(=O)O)s1` [Compound 153, 5-(3,3-Dimethylbut-1-ynyl)-3-(4-methyl-N-(4-(6-(pyrrolidin-1-yl)pyrazin-2-yloxy)cyclohexyl)cyclohexanecarboxamido)thiophene-2-carboxylic acid] reads 100%; that for `CC1=CC[C@H](C(=O)N(c2cc(C#CC(C)(C)C)sc2C(=O)O)[C@H]2CC[C@H](O[C@H]3CCOC3)CC2)CC1` [Compound 336], 100%.

Take `CC(C)(C)C#Cc1cc(N(C(=O)[C@H]2CC[C@H](C)CC2)[C@H]2CC[C@H](Sc3nc(N)n[nH]3)CC2)c(C(=O)O)s1` [Compound 95, 3-(N-(4-(5-Amino-2H-1,2,4-triazol-3-ylthio)cyclohexyl)-4-methylcyclohexanecarboxamido)-5-(3,3-dimethylbut-1-ynyl)thiophene-2-carboxylic acid]: the inhibition at 2 µM turned out to be 99.9%. As to `C[C@H]1CC[C@H](C(=O)N(c2cc(C#CC3(C(F)(F)F)CC3)sc2C(=O)O)[C@H]2CC[C@H](OC3CCOC3)CC2)CC1` (stereo partly drawn) [Compound 345, 3-((1r,4R)-4-methyl-N-((1r,4R)-4-(tetrahydrofuran-3-yloxy)cyclohexyl)cyclohexanecarboxamido)-5-(2-(1-(trifluoromethyl)cyclopropyl)ethynyl)thiophene-2-carboxylic acid], at 2 µM the inhibition was 100%. The compound `CC(C)(C)C#Cc1cc(N(C(=O)[C@H]2CC[C@H](C)CC2)[C@H]2CC[C@H](Sc3nncn3C3CC3)CC2)c(C(=O)O)s1` [Compound 90, 3-(N-(4-(4-Cyclopropyl-4H-1,2,4-triazol-3-ylthio)cyclohexyl)-4-methylcyclohexanecarboxamido)-5-(3,3-dimethylbut-1-ynyl)thiophene-2-carboxylic acid] came in with an inhibition at 2 µM of 100%. For the compound `Cn1cnnc1S[C@H]1CC[C@@H](N(c2cc(C#CC(C)(C)C)sc2C(=O)O)C(=O)[C@H]2CC[C@H](C)CC2)CC1` [Compound 85, 5-(3,3-dimethylbut-1-ynyl)-3-(4-methyl-N-(4-(4-methyl-4H-1,2,4-triazol-3-ylthio)cyclohexyl)cyclohexanecarboxamido)thiophene-2-carboxylic], 2 µM produced 99.6% inhibition.

As for `CN(C)Cc1ccnc(O[C@H]2CC[C@H](N(c3cc(C#CC4(C(F)(F)F)CCC4)sc3C(=O)O)C(=O)[C@H]3CC[C@H](C)CC3)CC2)c1` [Compound 338, 3-((1r,4R)—N-((1r,4R)-4-(4-((dimethylamino)methyl)pyridin-2-yloxy)cyclohexyl)-4-methylcyclohexanecarboxamido)-5-((1-(trifluoromethyl)cyclobutyl)ethynyl)thiophene-2-carboxylic acid], testing at 2 µM gave an inhibition of 99.9%. The result for `CC(C)(C)C#Cc1cc(N(C(=O)[C@H]2CC[C@H](C)CC2)[C@H]2CC[C@H](Sc3nnc4ccccn34)CC2)c(C(=O)O)s1` [Compound 92, 3-(N-(4-([1,2,4]-Triazolo[4,3-a]pyridin-3-ylthio)cyclohexyl)-4-methylcyclohexanecarboxamido)-5-(3,3-dimethylbut-1-ynyl)thiophene-2-carboxylic acid] reads 100%.

Values taken from patent US8569302B2, “Inhibitors of flaviviridae viruses” (Gilead Sciences, Inc., priority 2009, dated 2013).
